We go through nine compounds from patent publication EP1131089B1, “STABLE AQUEOUS INSULIN PREPARATIONS WITHOUT PHENOL AND CRESOL” (Novo Nordisk A/S, priority 1998, dated 2000).

For data set [1], the system named is human insulin. As to the kind of experiment: Physical stability of insulin solution with stabiliser, visual inspection for precipitation on storage at 5 °C. The data set is classed as physicochemical. The note with it: 0.5 Zn2+/insulin, NaCl 15 mM, glycylglycine 7 mM, tween 20 0.01 %, pH 7.5. As for the experimental part:
(§1) 27.5 ml of a 21 mM insulin stock solution was made by dissolving 3.707 g zinc free human insulin in 14 ml water and adding 2888 µl of 0.1 M ZnCl2 and 7 ml water before adjusting pH to 7.5 by 0.2 M NaOH and finally adding water to 27.5 ml, calculating the specific volume of insulin as 0.7 µl/mg. The stock solution was filtrated. A preparation of 3.5 ml 15 mM insulin was then made by adding 23 µl 2.3 M stabiliser in ethanol, 49 µl 0.5 M glycylglycine and 35 µl 1 % Tween 20 and water to 3.5 ml. The solution was thereafter diluted with medium containing sodium chloride 15 mM, glycylglycine 7 mM, Tween 20 0.01 %, pH 7.5 to 12, 9, 6, 3 and 0.6 mM insulin and stored at 5 °C for visual inspection. The reference solution was made by the same way but without adding a stabiliser. The chemical stability of the insulin solutions were followed at 37 °C for two concentrations, 3 and 15 mM, by determination of covalent insulin polymer by size exclusion chromatography. The analysis of insulin polymer was performed on Waters PROTEIN PAK 125 (250 x 8 mm) with an eluent containing 2.5 M acetic acid, 4 mM L-arginine and 20 %(V/V) acetonitrile at a flow rate of 1 ml/min. and ambient temperature. Detection was performed with a tunable absorbance detector (Waters 486) at 276 nm. Injection volume were […] for 3 and 15 mM insulin solutions, respectively.
(§2) 3.26 g human insulin (0.4 equivalent Zn^2+ per insulin) was dispersed in water in 18 ml water on icebath and added 490 µl 0.5 M glycylglycine and 1628 µl sodium hydroxide (3.1 equivalent) and stirred slowly overnight at 5 °C. 613 µl 0.1 M zinc chloride (0.1 equivalent of zinc) was then added the solution, pH adjusted to 7.5 by 410 µl 1 M hydrochloric acid (0.8 equivalent of chloride) and the volume adjusted to 25 ml by water. Finally the stock solution of 21 mM insulin was filtrated. 3.57 ml of the stock solution was added 50 µl 1 % tween 20, 750 µl 0.1 M stabiliser and 630 µl water to obtain 5 ml 15 mM insulin formulation. Finally the preparation was diluted with medium containing sodium chloride, glycylglycine and detergent to obtain 12, 9, 6, and 3 mM of human insulin and stored at 5 °C for visual inspection. The chemical stability of 3 and 15 mM insulin solutions were followed at 37 °C by determination of covalent insulin polymer by size exclusion chromatography.

Data set [2] concerns human insulin. As to the kind of experiment: Chemical stability at 37 °C, covalent insulin polymer determined by size exclusion chromatography. Type of data set: physicochemical. The note with it: stabiliser equimolar to insulin, 0.5 Zn2+/insulin, NaCl 15 mM, glycylglycine 7 mM, tween 20 0.01 %, pH 7.5. As for the experimental part:
as §1, §2
On the technique in general: In gel filtration, larger molecules generally elute earlier.

Setting [3] is: example 1, stabiliser equimolar to insulin.
The mark [4] stands for this setting: example 2, stabiliser equimolar to insulin.

Turning to `CC1(C)C2CCC1(C)C(O)C2` (single isomer, unassigned; (+)) [(+)-borneol], the “Physical stability of solution at 4 weeks and 5°C Maximal insulin concentration at which the solution was without precipitation up to 15 mM (3, 6, 9, 12, 15mM)” value in the data set with human insulin [1] (setting [3]) is reported as 9 mM. In the data set with human insulin [2] (example 1, 3 mM insulin), the “Chemical stability at 37°C (% polymer / week) Insulin solution of 3 mM” value is given as 0.47 % polymer / week. Moreover, the “Chemical stability at 37°C (% polymer / week) Insulin solution of 15 mM” value with human insulin [2] (example 1, 15 mM insulin) is listed as 0.61 % polymer / week.

As to `CC1C(O)CC2CC1C2(C)C` (single isomer, unassigned; (+)) [(+)-isopinocampheol], in the data set on human insulin [1] (setting [3]), the “Physical stability of solution at 4 weeks and 5°C Maximal insulin concentration at which the solution was without precipitation up to 15 mM (3, 6, 9, 12, 15mM)” value is listed as 12 mM. For the same compound, the “Chemical stability at 37°C (% polymer / week) Insulin solution of 3 mM” value in the data set on human insulin [2] (example 1, 3 mM insulin) came out at 0.49 % polymer / week. In addition, the “Chemical stability at 37°C (% polymer / week) Insulin solution of 15 mM” value in the data set on human insulin [2] (example 1, 15 mM insulin) came out at 0.61 % polymer / week.

Turning to `CC1(C)C2CCC1(C)C(O)C2` (single isomer, unassigned; (-)) [(-)-borneol], the “Physical stability of solution at 4 weeks and 5°C Maximal insulin concentration at which the solution was without precipitation up to 15 mM (3, 6, 9, 12, 15mM)” value with human insulin [1] (setting [3]) worked out at 9 mM. The “Chemical stability at 37°C (% polymer / week) Insulin solution of 3 mM” value in the data set with human insulin [2] (example 1, 3 mM insulin) turned out to be 0.43 % polymer / week. The “Chemical stability at 37°C (% polymer / week) Insulin solution of 15 mM” value with human insulin [2] (example 1, 15 mM insulin) is recorded as 0.47 % polymer / week.

On to `CC1C(O)CC2CC1C2(C)C` (single isomer, unassigned; (-)) [(-)-isopinocampheol], for which, in the data set with human insulin [1] (setting [3]), the “Physical stability of solution at 4 weeks and 5°C Maximal insulin concentration at which the solution was without precipitation up to 15 mM (3, 6, 9, 12, 15mM)” value is given as 15 mM. Moreover, in the data set on human insulin [2] (example 1, 3 mM insulin), the “Chemical stability at 37°C (% polymer / week) Insulin solution of 3 mM” value amounted to 0.53 % polymer / week. For the same compound, the “Chemical stability at 37°C (% polymer / week) Insulin solution of 15 mM” value in the data set on human insulin [2] (example 1, 15 mM insulin) is listed as 0.56 % polymer / week.

`CC1(C)[C@H]2CC[C@](C)(C2)[C@H]1O` [(+)-fenchol]: in the data set on human insulin [1] (setting [3]), the “Physical stability of solution at 4 weeks and 5°C Maximal insulin concentration at which the solution was without precipitation up to 15 mM (3, 6, 9, 12, 15mM)” value turned out to be 15 mM. The “Chemical stability at 37°C (% polymer / week) Insulin solution of 3 mM” value in the data set on human insulin [2] (example 1, 3 mM insulin) is reported as 0.50 % polymer / week. Also, the “Chemical stability at 37°C (% polymer / week) Insulin solution of 15 mM” value with human insulin [2] (example 1, 15 mM insulin) is reported as 0.97 % polymer / week.

With `CC1(C)[C@H]2CC[C@H](CO)[C@@H]1C2` [(-)-trans-myrtanol], in the data set on human insulin [1] (setting [3]), the “Physical stability of solution at 4 weeks and 5°C Maximal insulin concentration at which the solution was without precipitation up to 15 mM (3, 6, 9, 12, 15mM)” value turned out to be 15 mM. Further, in the data set with human insulin [2] (example 1, 3 mM insulin), the “Chemical stability at 37°C (% polymer / week) Insulin solution of 3 mM” value was 0.64 % polymer / week. The “Chemical stability at 37°C (% polymer / week) Insulin solution of 15 mM” value in the data set with human insulin [2] (example 1, 15 mM insulin) came to 0.95 % polymer / week.

On to `Nc1ncnc2nc[nH]c12` [adenine], for which the “Physical stability of solution at 4 weeks and 5°C Maximal insulin concentration at which the solution was without precipitation up to 15 mM (3, 6, 9, 12, 15mM)” value with human insulin [1] (setting [4]) is 9 mM. The “Chemical stability at 37°C (% polymer / week) Insulin solution of 3 mM” value in the data set with human insulin [2] (example 2, 3 mM insulin) is given as 0.59 % polymer / week. For the same compound, the “Chemical stability at 37°C (% polymer / week) Insulin solution of 15 mM” value in the data set with human insulin [2] (example 2, 15 mM insulin) was 0.77 % polymer / week.

In the case of `Oc1ccccc1` [phenol], the “Physical stability of solution at 4 weeks and 5°C Maximal insulin concentration at which the solution was without precipitation up to 15 mM (3, 6, 9, 12, 15mM)” value in the data set on human insulin [1] (setting [3]) and with human insulin [1] (setting [4]) was 15 mM each time. Further, the “Chemical stability at 37°C (% polymer / week) Insulin solution of 3 mM” value in the data set on human insulin [2] (example 1, 3 mM insulin) is 0.37 % polymer / week; in the data set on human insulin [2] (example 2, 3 mM insulin), 0.32 % polymer / week. Besides, the “Chemical stability at 37°C (% polymer / week) Insulin solution of 15 mM” value in the data set on human insulin [2] (example 1, 15 mM insulin) came out at 0.39 % polymer / week; with human insulin [2] (example 2, 15 mM insulin) it was 0.29 % polymer / week.

With `c1ncc2[nH]cnc2n1` [purine], in the data set with human insulin [1] (setting [4]), the “Physical stability of solution at 4 weeks and 5°C Maximal insulin concentration at which the solution was without precipitation up to 15 mM (3, 6, 9, 12, 15mM)” value amounted to 15 mM. The “Chemical stability at 37°C (% polymer / week) Insulin solution of 3 mM” value in the data set with human insulin [2] (example 2, 3 mM insulin) was determined as 0.58 % polymer / week. Further, in the data set with human insulin [2] (example 2, 15 mM insulin), the “Chemical stability at 37°C (% polymer / week) Insulin solution of 15 mM” value stood at 0.71 % polymer / week.
